Laboratory results as given in US7375222B2, “2,4,6-Triamino-1,3,5-triazine derivative” (Astellas Pharma Inc., priority 2002, dated 2008).

Columns and labels:
[1] = system: ECS-induced amnesia; test: Electroconvulsive shock (ECS)-induced amnesia, mouse passive avoidance task; format: in vivo
Experimental: Electricity Chorea Shock (ECS)-Induced Learning Disorder (Mouse Passive Evasion Reaction Test) The evaluation was carried out in the following manner with reference to a report (Eur. J. Pharmacology, 321; 273-278, 1997). Animals; Male ddy mice (SLC, five weeks of age at the time of the training) were used. Arranged into 31 or 32 animals per group. A compound to be evaluated was suspended in a solution prepared by dissolving methyl cellulose in physiological saline to a concentration of 0.5% (hereinafter, 0.5% methyl cellulose solution). The administration volume was set to 10 ml per 1 kg body weight. As a placebo of the compound to be evaluated, 10 ml of the 0.5% methyl cellulose solution per 1 kg body weight (hereinafter, vehicle) was administered. (2) Each mouse was put into the light compartment of a passive avoidance task apparatus and allowed to stand for 30 seconds. Thereafter, the Guillotine door was opened. […] (3) A period of time until the mouse crossed a sensor in the dark compartment after opening the Guillotine door (step-through latency) was recorded. […] Effect of the compound on ECS-induced amnesia was evaluated by comparison between a step-through latency of (ECS+vehicle administration) group and a that of (ECS+evaluation compound administration) group. Data were analyzed using two-tailed steel test. […]

[2] = biological target: T1, BEC 1 potassium channel (Homo sapiens, UniProt Q9ULD8); test: BEC 1 inhibitory activity using released amount of 86Rb ions from BEC 1-expressing cells; format: cell-based; conditions: 86Rb ion release, BEC 1-stably expressing CHO (dhfr-deficient) cell, 100 mM KCl stimulation; read-out: BEC1 IC50
T1 construct: expressed in transfected cells
T1 sequence (Q9ULD8 1-1083): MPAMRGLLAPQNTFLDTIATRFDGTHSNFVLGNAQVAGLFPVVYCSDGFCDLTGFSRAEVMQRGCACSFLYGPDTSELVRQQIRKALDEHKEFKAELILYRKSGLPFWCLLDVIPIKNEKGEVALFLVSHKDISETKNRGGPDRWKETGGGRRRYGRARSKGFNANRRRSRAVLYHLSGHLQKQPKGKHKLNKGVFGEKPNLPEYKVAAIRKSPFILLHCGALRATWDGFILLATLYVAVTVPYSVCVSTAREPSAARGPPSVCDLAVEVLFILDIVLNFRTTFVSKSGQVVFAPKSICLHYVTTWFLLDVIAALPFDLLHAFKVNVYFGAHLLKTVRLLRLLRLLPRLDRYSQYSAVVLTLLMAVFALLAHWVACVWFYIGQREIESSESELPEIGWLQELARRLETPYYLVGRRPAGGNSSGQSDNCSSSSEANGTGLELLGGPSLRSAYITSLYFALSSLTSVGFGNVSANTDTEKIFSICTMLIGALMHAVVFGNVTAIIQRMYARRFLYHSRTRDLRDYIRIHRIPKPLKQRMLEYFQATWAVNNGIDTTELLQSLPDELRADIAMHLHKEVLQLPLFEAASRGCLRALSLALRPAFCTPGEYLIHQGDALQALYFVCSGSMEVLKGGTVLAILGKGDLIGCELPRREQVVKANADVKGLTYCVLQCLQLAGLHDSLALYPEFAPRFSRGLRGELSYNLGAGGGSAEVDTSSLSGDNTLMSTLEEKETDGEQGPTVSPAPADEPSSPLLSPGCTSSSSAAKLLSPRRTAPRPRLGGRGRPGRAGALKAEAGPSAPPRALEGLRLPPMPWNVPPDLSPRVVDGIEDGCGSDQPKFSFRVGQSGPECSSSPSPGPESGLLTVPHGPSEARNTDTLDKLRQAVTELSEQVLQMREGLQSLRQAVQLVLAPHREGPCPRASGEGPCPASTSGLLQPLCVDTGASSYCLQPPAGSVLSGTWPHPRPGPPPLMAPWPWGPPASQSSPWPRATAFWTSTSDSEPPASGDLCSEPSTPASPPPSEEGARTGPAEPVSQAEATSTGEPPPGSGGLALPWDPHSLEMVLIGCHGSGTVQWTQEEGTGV
Experimental: In general, the potassium channel can pass Rb^+ ion similar to K^+ ion, so that the channel activity can be measured using release of a radioisotope ^86Rb^+ as a marker. By incubating cells expressing the novel potassium channel protein together with ^86RbCl (e.g., 18 hr, 37° C.), ^86Rb^+ can be incorporated into the cells. The cells are washed with a low K^+ concentration physiological saline (e.g., 4.5 mM K^+) and then suspended in the same solution. When a high K^+ concentration solution (e.g., 100 mM in final concentration) is added to the cell suspension, membrane potential of the cell is depolarized and the potassium channel therefore is activated. As a result, the intracellular ^86Rb^+ is released into the extracellular part, thus radioactivity of the extracellular solution can be used as a marker of the channel activity. It is possible to screen a compound and a peptide capable of modifying activity of the BEC 1 potassium channel protein, by comparing the radioactivity released into the extracellular part when the high K^+ concentration solution is added in the presence and absence of each drug to be tested.
Method for Measuring BEC 1 Inhibitory Activity of Compounds Using Released Amount of ^86Rb ions as the Index
The channel activity of BEC 1 was measured in accordance with the method described in WO 99/37677, using amount of a radioisotope ^86Rb ion released from a BEC 1-expressing cell as the index. That is, when an ^86Rb ion-incorporated BEC 1-expressing cell was stimulated with 100 mM KCl, the radioactivity released from the cell was used as the channel activity of BEC 1. The ^86Rb ions were incorporated into a BEC 1-stably expressing cell by culturing the cell (3 hours, 37° C.) in the presence of ^86RbCl (0.5 μCi/ml), and the un-incorporated ^86Rb ions were removed by washing three times with HEPES-buffered saline (pH 7.4, 2.5 mM KCl). The cells were incubated with HEPES-buffered saline containing a compound to be tested at room temperature for 15 minutes and then further incubated with 100 mM KCl-containing HEPES-buffered saline (pH 7.4) containing the compound to be tested at room temperature for 5 minutes. The extracellular medium was recovered, and then the remaining cells were lysed with 0.1 N NaOH and recovered.
The Cerenkov radioactivity of the extracellular medium and cell lysate was respectively measured, and their total was used as the total radioactivity. The released amount of ^86Rb ions was expressed by the percentage of extracellular medium radioactivity based on the total radioactivity. The value obtained in the presence of the compound was used as a test value, and the value obtained in the absence of the compound as a control value and the value obtained when not stimulated with 100 mM KCl as a blank value. Inhibitory action of each compound was expressed by % inhibition, namely (control value−test value)×100/(control value−blank value), or by an IC50 value calculated from the % inhibition. As the test results of typical compounds are shown in the following Tables 2 and 3, it was confirmed that said compounds have the BEC 1 potassium channel inhibitory action.
In this connection, as the BEC 1-expressing cell, a BEC 1-stably expressing cell prepared in accordance with the method described in WO 99/37677 using a dihydrofolate reductase (dhfr)-deficient strain of a Chinese hamster ovary cell was used.

Fc1ccc(Nc2nc(NCc3ccnc(F)c3)nc(Nc3ccccc3)n2)cc1 [Example 744]
minimum effective dose (step-through latency) ([1]; intraperitoneally administered, male ddy mice, test 24 hours after training): 3 mg/kg
effect on ECS-induced amnesia ([1]; mouse passive avoidance task): shows the improving effect
IC50 [2]: 85 nM
